Experimental data reported in PubChem BioAssay AID1963968 (Molecular Pharmacology Branch, DTP, NCI, 2024).

System: 945468-187-T-J3-PDC spheroids with HUVEC/MSC, viability
Experiment: Anticancer human tumor 945468-187-T-J3-PDC patient-derived rectal carcinoma cell line growth inhibition [PI3K]
Conditions: for IC50: curve of first compound; for viability, T/C: stronger effect = lower value
Description: Combinatorial screen of targeted agents with the PI3K inhibitors inavolisib, alpelisib, duvelisib, and copanlisib in multi-cell type tumor spheroids
A high-throughput screen of multi-cell type tumor spheroids was designed to identify active combinations of targeted small molecules and PI3K pathway inhibitors. Complex spheroids include a stromal component modeled by human endothelial cells (HUVEC) and fibroblasts modeled by human mesenchymal stem cells (MSCs). The concentration ranges selected for each drug and investigational agent were based upon clinically achievable concentrations if the clinical Cmax of the agent was known.
Compounds. The drugs and investigational agents: inavolisib (NSC800729), alpelisib (NSC765974), duvelisib (NSC772469), copanlisib (NSC816437), ipatasertib (NSC767898), afuresertib (NSC778305), talazoparib (NSC767125), sapanisertib (NSC764658), selumetinib (NSC741078), tovorafenib (DAY101, NSC766906), vemurafenib (NSC761431), ravoxertinib (NSC781343), sotorasib (NSC818433), MRTX1133 (NSC 836407), abemaciclib (NSC 768073), palbociclib (NSC758247), venetoclax (NSC 766270), SY5609 (NSC837396), enzalutamide (NSC755605), and darolutamide (NSC825331), were obtained from the National Cancer Institute (NCI) Developmental Therapeutics Program Chemical Repository. The FDA-approved anticancer drug set is available from the NCI Developmental Therapeutics Program. […] The stock solutions were prepared in dimethyl sulfoxide (DMSO, Sigma-Aldrich, St. Louis, MO, cat. D2650) at 800-fold the tested concentration and stored at -70 degrees C prior to their use. All drugs and investigational agents were tested over a range starting from a high concentration at or near the clinical Cmax and decreasing in half-log increments. If the clinical Cmax for an agent had not been determined, the highest concentration tested was 10 microM.
Cell Culture. All cells were maintained in an incubator at 37 degrees C and 5% CO2 with 95% humidity. The PDC lines were cultured according to standard operating procedures established by the NCI PDMR (https://pdmr.cancer.gov/sops/default.htm). All PDCs were thawed and cultured in Matrigel-coated flasks prepared with a working solution of 1X Ham's F-12 nutrient mix, without supplementation (Invitrogen, Waltham, MA, cat. 11765054), 100 U/mL penicillin-streptomycin (Invitrogen, cat. 15140122), and 2.5% Matrigel (Corning Inc., Corning, NY, cat. 354248) for the first three passages. The 354836-022-R-J1-PDC, 475296-252-R-J1-PDC, and 997726-040-R-J2-PDC lines were cultured in 6A media, which includes advanced DMEM/F-12 (Thermo Fisher Scientific, cat. 12634028), 10 mM HEPES (Thermo Fisher Scientific, cat. 15630080), 1X GlutaMAX supplement (Thermo Fisher Scientific, cat. 35050061), 0.1 mg/mL primocin (InvivoGen, San Diego, CA, cat. ant-pm-2), 10% defined fetal bovine serum, heat inactivated (HyClone Laboratories Inc., Logan, UT, cat. SH30070.03HI), 50% L-WRN conditioned media (ATCC, cat. CRL-3276), 1.25 mM N-Acetyl-L-cysteine (Sigma-Aldrich, cat. A9165), 10 mM nicotinamide (Sigma-Aldrich, cat. N0636), 1X B-27 supplement (Thermo Fisher Scientific, cat. 17504044), 1X N-2 supplement (Thermo Fisher Scientific, cat. 17502048), and 10 microM Y-27632 dihydrochloride (Tocris Bioscience, Bristol, United Kingdom, cat. 1254). The 624824-186-R-J2-PDC line was cultured in 6C/Colon 1B media, which includes all 6A media components plus 50 ng/mL human EGF recombinant protein (Thermo Fisher Scientific, cat. PHG0311). […]
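Note: spheroids exposed to agents for 7 days before viability read.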
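Throughout, for viability, T/C: 100% = DMSO vehicle control viability.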

Cn1cnc2c(F)c(Nc3ccc(Br)cc3Cl)c(C(=O)NOCCO)cc21 + COc1c(OCCCN2CCOCC2)ccc2c3n(c(=NC(=O)c4cnc(N)nc4)nc12)CCN3
IC50 (second compound 0.00316 µM): > 3000 nM | IC50 (second compound 0.01 µM): 1250 nM | IC50 (second compound 0.0316 µM): 154 nM | IC50 (second compound 0.1 µM): < 9.49 nM | IC50 (second compound 0.316 µM): < 9.49 nM | IC50 (second compound 1 µM): < 9.49 nM | viability, T/C (second compound 0.00316 µM, first compound 0.00949 µM): 103% | viability, T/C (second compound 0.00316 µM, first compound 0.03 µM): 99.9% | viability, T/C (second compound 0.00316 µM, first compound 0.0949 µM): 103% | viability, T/C (second compound 0.00316 µM, first compound 0.3 µM): 91.7% | viability, T/C (second compound 0.00316 µM, first compound 0.949 µM): 91.8% | viability, T/C (second compound 0.00316 µM, first compound 3 µM): 68% | viability, T/C (second compound 0.01 µM, first compound 0.00949 µM): 96.1% | viability, T/C (second compound 0.01 µM, first compound 0.03 µM): 103% | viability, T/C (second compound 0.01 µM, first compound 0.0949 µM): 89.8% | viability, T/C (second compound 0.01 µM, first compound 0.3 µM): 80.7% | viability, T/C (second compound 0.01 µM, first compound 0.949 µM): 56.4% | viability, T/C (second compound 0.01 µM, first compound 3 µM): 29.9% | viability, T/C (second compound 0.0316 µM, first compound 0.00949 µM): 93.5% | viability, T/C (second compound 0.0316 µM, first compound 0.03 µM): 67.4% | viability, T/C (second compound 0.0316 µM, first compound 0.0949 µM): 64.3% | viability, T/C (second compound 0.0316 µM, first compound 0.3 µM): 36.4% | viability, T/C (second compound 0.0316 µM, first compound 0.949 µM): 27.8% | viability, T/C (second compound 0.0316 µM, first compound 3 µM): 13.7% | viability, T/C (second compound 0.1 µM, first compound 0.00949 µM): 42.2% | viability, T/C (second compound 0.1 µM, first compound 0.03 µM): 33.9% | viability, T/C (second compound 0.1 µM, first compound 0.0949 µM): 27.4% | viability, T/C (second compound 0.1 µM, first compound 0.3 µM): 14.7% | viability, T/C (second compound 0.1 µM, first compound 0.949 µM): 9.64% | viability, T/C (second compound 0.1 µM, first compound 3 µM): 3.84% | viability, T/C (second compound 0.316 µM, first compound 0.00949 µM): 17.5% | viability, T/C (second compound 0.316 µM, first compound 0.03 µM): 18.3% | viability, T/C (second compound 0.316 µM, first compound 0.0949 µM): 10% | viability, T/C (second compound 0.316 µM, first compound 0.3 µM): 8.2% | viability, T/C (second compound 0.316 µM, first compound 0.949 µM): 3.92% | viability, T/C (second compound 0.316 µM, first compound 3 µM): 1.13% | viability, T/C (second compound 1 µM, first compound 0.00949 µM): 13.6% | viability, T/C (second compound 1 µM, first compound 0.03 µM): 8.89% | viability, T/C (second compound 1 µM, first compound 0.0949 µM): 7.97% | viability, T/C (second compound 1 µM, first compound 0.3 µM): 4.92% | viability, T/C (second compound 1 µM, first compound 0.949 µM): 4.14% | viability, T/C (second compound 1 µM, first compound 3 µM): 1.82%
